Test systems include MALME-3M melanoma; TK-10 renal; SK-MEL-5 melanoma; UACC-62 melanoma; NCI-H226 lung; HT29 colon; CAKI-1 renal; T-47D breast; SNB-75 CNS; HOP-92 NSCLC.
What all share (assay): growth of human tumour cells (NCI), 48 h

Our source for the TGI values is PubChem BioAssay (NCI).

Molecules are shown by their SMILES.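 Compound exposure: 48 hours, 5 concentrations, 96-well plates. At the TGI there is no net growth.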

On to `CC(C)[C@@H]1CC[C@@H](C)C[C@H]1OC(=O)c1c2n(c3ccccc13)C[C@H]1OC(C)(C)O[C@@H]21`, for which the TGI with MALME-3M melanoma is over 100 µM; with TK-10 renal, 60.7 µM; with SK-MEL-5 melanoma it was over 100 µM; with UACC-62 melanoma, over 100 µM; in the test on NCI-H226 lung it was over 100 µM; in the test on HT29 colon, over 100 µM. The TGI in the test on CAKI-1 renal was 87.3 µM; with T-47D breast, over 100 µM.

Turning to `CC(C)Oc1c(C2(c3ccccc3)SCCCS2)c(=O)c1=O`, the TGI with SNB-75 CNS, in the test with HOP-92 NSCLC, with TK-10 renal, in the test with SK-MEL-5 melanoma, with UACC-62 melanoma and with NCI-H226 lung was over 100 µM each time. For the same molecule, the TGI in the test with HT29 colon, in the test with CAKI-1 renal and with T-47D breast was over 100 µM in each case.

Consider `CCS(=O)C(=O)N(O)c1ccc(Cl)cc1` (stereo not drawn), for which the TGI is over 100 µM in the test with SNB-75 CNS; over 100 µM in the test with HOP-92 NSCLC; over 100 µM with TK-10 renal; 74.1 µM in the test on SK-MEL-5 melanoma; 22.9 µM in the test on UACC-62 melanoma; over 100 µM in the test with NCI-H226 lung. Also, the values for the TGI with CAKI-1 renal and in the test with T-47D breast were 38.5 µM and over 100 µM, respectively.

`CCN(CC)CCCNc1c2c(Cl)cc(Cl)cc2nc2nc(=O)[nH]c(C)c12`: the TGI with MALME-3M melanoma, in the test on HOP-92 NSCLC, in the test on TK-10 renal, with SK-MEL-5 melanoma, with UACC-62 melanoma and in the test with NCI-H226 lung was over 100 µM in each case. The TGI with HT29 colon is 36.4 µM; in the test with CAKI-1 renal, over 100 µM; in the test on T-47D breast, over 100 µM.

Turning to `CC1(C)C2CCC3CC(CCC#N)CCC3C21C#N` (stereo not drawn), the TGI in the test with MALME-3M melanoma, in the test on HOP-92 NSCLC, with TK-10 renal, in the test with SK-MEL-5 melanoma, in the test on UACC-62 melanoma and in the test with NCI-H226 lung was over 100 µM throughout. Also, the TGI in the test on HT29 colon, in the test with CAKI-1 renal and in the test on T-47D breast was over 100 µM throughout.

In the case of `COc1ccc(Nc2nc3ccccc3n3cccc23)cc1OC`, the TGI is 32.9 µM with MALME-3M melanoma; over 100 µM in the test with HOP-92 NSCLC; 39 µM in the test with TK-10 renal; 24.2 µM in the test on SK-MEL-5 melanoma; 27.4 µM with UACC-62 melanoma; over 100 µM in the test with HT29 colon. Besides, the TGI in the test with CAKI-1 renal was 89.1 µM; in the test on T-47D breast, 15.2 µM.

Consider `CCOC(=O)c1c2ccc(/C=C/c3ccccn3)ccc-2c(C(=O)OCC)c1N`, for which the TGI with SNB-75 CNS, with MALME-3M melanoma, in the test on HOP-92 NSCLC, in the test with TK-10 renal, with SK-MEL-5 melanoma and in the test with UACC-62 melanoma was over 100 µM in each case. In addition, the TGI in the test on NCI-H226 lung, in the test with HT29 colon and in the test with CAKI-1 renal was over 100 µM each time.

`Clc1ccc(Nc2nnc(CNc3ccc(-c4nnc(Nc5ccc(Cl)cc5)s4)cc3)s2)cc1`: the TGI in the test on SNB-75 CNS was over 100 µM; in the test on MALME-3M melanoma, over 100 µM; in the test with HOP-92 NSCLC, over 100 µM; in the test on TK-10 renal, over 100 µM; with SK-MEL-5 melanoma, 79.3 µM; in the test on UACC-62 melanoma it was 64.9 µM. The figures for the TGI with NCI-H226 lung, with HT29 colon and with CAKI-1 renal were over 100 µM, 24.4 µM and over 100 µM, respectively.

Take `CC1(C)CCN2C(=O)C34CCCC3CC21S4` (stereo not drawn): the TGI in the test with MALME-3M melanoma, with HOP-92 NSCLC, in the test on TK-10 renal, in the test on SK-MEL-5 melanoma, in the test with UACC-62 melanoma and in the test on NCI-H226 lung was over 100 µM throughout. The TGI in the test with HT29 colon, in the test with CAKI-1 renal and in the test with T-47D breast was over 100 µM in each case.

`CCOC(=O)N/N=C(/N)c1cccc(Br)c1`: the TGI in the test on SNB-75 CNS, in the test with MALME-3M melanoma, in the test on TK-10 renal, in the test on SK-MEL-5 melanoma, with UACC-62 melanoma and in the test on HT29 colon was over 100 µM in each case. The TGI in the test on CAKI-1 renal and with T-47D breast was over 100 µM in each case.

Consider `COC(=O)C(CC(C)C)NC(=O)C(NC(=O)c1ccc(-c2ccc(Cl)cc2Cl)o1)C(C)C` (stereo not drawn), for which the TGI is over 100 µM in the test on SNB-75 CNS; 45.9 µM in the test with HOP-92 NSCLC; 84.5 µM with TK-10 renal; 49.9 µM with SK-MEL-5 melanoma; 44.8 µM with UACC-62 melanoma; over 100 µM with NCI-H226 lung. Moreover, the TGI is 42.6 µM in the test with HT29 colon, over 100 µM in the test with CAKI-1 renal and over 100 µM in the test on T-47D breast.

As for `CCCCOCCOCCOC1=CC(=O)c2c(O)ccc(O)c2C1=O`, the TGI with MALME-3M melanoma is 1.49 µM; with HOP-92 NSCLC, 6.28 µM; with TK-10 renal, 5.28 µM; with SK-MEL-5 melanoma, 2.25 µM; in the test with UACC-62 melanoma, 3.64 µM; in the test with NCI-H226 lung, 3.59 µM. The TGI was 3.76 µM in the test with CAKI-1 renal and 6.16 µM in the test on T-47D breast.

Consider `O=c1[nH]nc(Cc2ccccc2)n1/N=C/c1cccs1`, for which the TGI in the test with SNB-75 CNS, with MALME-3M melanoma, with UACC-62 melanoma, in the test with NCI-H226 lung, in the test with HT29 colon and in the test on CAKI-1 renal was over 100 µM throughout. In the test on T-47D breast, this molecule came in with a TGI of over 100 µM.

For `CC1(C)OC(=O)C(C)(C)C(=O)O1`, the TGI in the test with SNB-75 CNS, in the test with MALME-3M melanoma, with TK-10 renal, in the test with SK-MEL-5 melanoma, in the test with UACC-62 melanoma and in the test on NCI-H226 lung was over 100 µM throughout. In addition, the TGI in the test with HT29 colon, in the test with CAKI-1 renal and with T-47D breast was over 100 µM each time.

With `N#CC(NNC(=O)Cc1ccccc1)c1cccc(O)c1` (stereo not drawn), the TGI in the test on SNB-75 CNS, in the test with MALME-3M melanoma, in the test on HOP-92 NSCLC, in the test on TK-10 renal, in the test with SK-MEL-5 melanoma and with UACC-62 melanoma was over 100 µM in each case. For the same molecule, the TGI with NCI-H226 lung, in the test on HT29 colon and in the test with CAKI-1 renal was over 100 µM in each case.
